The target of assay [1] is T1, Cysteinyl leukotriene receptor 1 (Homo sapiens) (UniProt Q9Y271).
T1 sequence (whole entry): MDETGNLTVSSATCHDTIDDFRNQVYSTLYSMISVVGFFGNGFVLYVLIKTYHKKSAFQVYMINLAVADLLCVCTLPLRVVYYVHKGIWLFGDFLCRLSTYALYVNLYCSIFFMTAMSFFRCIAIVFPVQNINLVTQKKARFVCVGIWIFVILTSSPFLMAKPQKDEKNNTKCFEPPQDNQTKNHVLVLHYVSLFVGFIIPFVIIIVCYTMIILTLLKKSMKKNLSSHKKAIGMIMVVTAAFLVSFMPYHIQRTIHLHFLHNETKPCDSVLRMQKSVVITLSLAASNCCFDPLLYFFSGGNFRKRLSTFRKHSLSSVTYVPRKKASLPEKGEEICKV
In words: In vitro antagonistic activity against leukotriene D4 receptor; A - Active. The format is functional. Conditions: filed as antagonist.

Assay [2] has as its target T1, Cysteinyl leukotriene receptor 1 (Homo sapiens). In words: In vivo antagonistic activity against leukotriene D4 receptor; A - Active. Conditions: filed as antagonist. The class given is functional, organism-based.

For the compound `CN(C)C(=O)CCS[C@H](SCCC(=O)O)c1cccc(/C=C/c2ccc3ccc(Cl)cc3n2)c1`, the Activity entry in assay [1] and in assay [2] was “Antagonist” in each case.
Consider `CN(C)C(=O)CCSC(SCCC(=O)O)c1cccc(/C=C/c2ccc3ccc(Cl)cc3n2)c1` (centres undefined), for which the Activity entry in assay [1] and in assay [2] was “Antagonist” each time.
